# Reference: ChEMBL document CHEMBL3045409, “Synthesis and biological evaluation of ester derivatives of indomethacin as selective COX-2 inhibitors” (Med Chem Res, 2012)
# Columns and labels:
# Rattus norvegicus [1] = experiment: Anti-inflammatory activity in Rattus norvegicus Sprague-Dawley (rat) assessed as inhibition of carrageenan-induced paw edema at 10 mg/kg, po after 1.5 to 3 hr relative to control; type: functional
# Rattus norvegicus [2] = experiment: Ulcerogenic activity in Rattus norvegicus Sprague-Dawley (rat) assessed as ulcer index at 10 mg/kg, po after 8 hr; type: toxicity, organism-based; design: dose 10 mg/kg, route oral; conditions: in vivo
# [3] = target: T1, Prostaglandin G/H synthase 1 (Ovis aries) (UniProt P05979); experiment: Inhibition of Ovis aries (sheep) COX-1 assessed as appearance of oxidized N,N,N',N'-tetramethyl-p-phenylenediamine at 20 uM by colorimetric analysis
# T1 sequence (whole entry): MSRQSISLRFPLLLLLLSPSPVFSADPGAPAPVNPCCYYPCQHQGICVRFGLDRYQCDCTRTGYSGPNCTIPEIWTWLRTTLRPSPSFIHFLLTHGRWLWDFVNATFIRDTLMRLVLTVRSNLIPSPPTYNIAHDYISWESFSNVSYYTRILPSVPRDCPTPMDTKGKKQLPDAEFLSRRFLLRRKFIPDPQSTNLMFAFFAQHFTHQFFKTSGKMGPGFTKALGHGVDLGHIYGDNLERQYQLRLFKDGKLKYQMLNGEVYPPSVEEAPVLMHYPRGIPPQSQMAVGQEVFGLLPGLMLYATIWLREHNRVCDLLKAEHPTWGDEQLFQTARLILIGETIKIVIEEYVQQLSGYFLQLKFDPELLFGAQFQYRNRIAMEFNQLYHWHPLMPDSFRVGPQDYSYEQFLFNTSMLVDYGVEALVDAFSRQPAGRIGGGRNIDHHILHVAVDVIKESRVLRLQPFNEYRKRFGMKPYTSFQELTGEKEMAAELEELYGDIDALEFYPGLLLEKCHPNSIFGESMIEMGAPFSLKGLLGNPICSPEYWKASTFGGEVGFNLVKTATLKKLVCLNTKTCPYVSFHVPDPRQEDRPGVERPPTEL
inhibition [3] [%],Compound,inhibition in vivo at 10 mg/kg (Rattus norvegicus [1]) [%],UI (Rattus norvegicus [2])
12.9,CCOC(=O)c1ccc(OC(=O)Cc2c(C)n(C(=O)c3ccc(Cl)cc3)c3ccc(OC)cc23)cc1,19.9,0
–,COc1ccc2c(c1)c(CC(=O)OCc1ccoc1)c(C)n2C(=O)c1ccc(Cl)cc1,0,–
–,CCc1ccc(OC(=O)Cc2c(C)n(C(=O)c3ccc(Cl)cc3)c3ccc(OC)cc23)cc1,2.41,–
–,COc1ccc2c(c1)c(CC(=O)OCCN1CCNCC1)c(C)n2C(=O)c1ccc(Cl)cc1,0,–
–,COc1ccc2c(c1)c(CC(=O)Oc1ccc([N+](=O)[O-])cc1)c(C)n2C(=O)c1ccc(Cl)cc1,4.81,–
–,COc1ccc2c(c1)c(CC(=O)Oc1ccc(Cl)cc1)c(C)n2C(=O)c1ccc(Cl)cc1,0,–
–,COc1ccc2c(c1)c(CC(=O)OCCc1c(C)cc(C)cc1C)c(C)n2C(=O)c1ccc(Cl)cc1,9.04,–
–,CCCCOC(=O)c1ccc(OC(=O)Cc2c(C)n(C(=O)c3ccc(Cl)cc3)c3ccc(OC)cc23)cc1,7.83,–
–,COc1ccc2c(c1)c(CC(=O)Oc1c(Cl)c(Cl)c(Cl)c(Cl)c1Cl)c(C)n2C(=O)c1ccc(Cl)cc1,0,–
–,COc1ccc2c(c1)c(CC(=O)OCc1ccccc1)c(C)n2C(=O)c1ccc(Cl)cc1,3.61,–
–,COc1ccc2c(c1)c(CC(=O)O)c(C)n2C(=O)c1ccc(Cl)cc1 [INDOMETHACIN],13.9,50
–,COc1ccc2c(c1)c(CC(=O)OCCN1CCCCC1)c(C)n2C(=O)c1ccc(Cl)cc1,7.23,–
